| SMILES | melting point |
| --- | --- |
| O=Cc1cc(-c2cccc(Cl)c2)c2cc(C(c3ccc(Cl)cc3)c3cccnc3)ccc2n1 (centres undefined) | 168 °C |
| COC(=O)C1(c2ccc(OCCN)cc2)CC1 | 119 to 122 °C |
| OCc1cc(C2CN(CCCCCCOCCCCc3ccccc3)CO2)ccc1O (racemic) | 72 to 75 °C |
| CC(N)(C=CP(=O)(O)O)CCCc1ccc(Sc2cccc(OCc3ccccc3)c2)cc1Cl (centres undefined) | 243 to 245 °C |
| CCOC(=O)C=C(c1ccc(Br)s1)c1ccc(Br)s1 | 69 to 70 °C |
| CCOC(=O)c1nc(-c2ccc(=O)[nH]c2)c(-c2ccccc2)nc1N | 230 to 238 °C |
| CCN(c1ccc(Br)cc1)c1nc(=O)c2cccnc2s1 | 166 to 167 °C |
| COc1c(C)c(C)c(OC)c(C(O)(c2ccc(N3CCOCC3)cc2)C(C)C)c1C (centres undefined) | 191 to 193 °C |
| CCn1c(=O)c2c(nc(/C=C/c3ccc(F)c(Br)c3)n2C)n(CC)c1=O | 218 to 219 °C |
| CC(C)N1CC=C(c2c[nH]c3ccccc23)CC1 | 178 °C |
| O=C1N(CC2COCCO2)c2ccccc2C12COc1cc3c(cc12)OCCCO3 (centres undefined) | 137 to 139 °C |
| CN(C(N)=O)c1ccc(C(O)(C(F)(F)F)C(F)(F)F)cc1 | 181 to 184 °C |
| Cc1noc(-c2ccccc2)c1-c1ccc(S(C)(=O)=O)cc1 | 144 to 145 °C |
| Cn1ncc(/C=C/C(=O)Nc2ccc(Cc3nc(C(=O)O)cs3)cc2)c1-c1ccc(F)cc1 | 226 to 227 °C |
| CC(CN1C(=O)c2ccccc2C1=O)c1c[nH]c2ccc(C#N)cc12 (centres undefined) | 218 to 220 °C |
| CCCCNc1ncn(-c2c(CC)cccc2CC)c(=O)n1 | 178 to 179 °C |
| C=CCc1[nH]cc2c1-c1ccc(Cl)cc1C(c1ccccc1F)=NC2 | 212 to 214 °C |
| CC1CC2C3CC(F)C4=CC(=O)C=CC4(C)C3C(=O)CC2(C)C1C(=O)COC(=O)C(C)(C)C (centres undefined) | 226 to 227 °C |
| COc1cc(OC(C)C)cc2oc(C)cc(=S)c12 | 113 to 114 °C |
| CC(=O)NC[C@H]1CN(c2ccc3c(c2)N(C(=O)OCc2ccccc2)[C@H](C)C3)C(=O)O1 | 201 to 203 °C |
| Cc1ccnc(CO)c1Br | 75 to 77 °C |
| CS(=O)CC(C)(C)NC(=O)c1c(I)cccc1-c1ccc(C(F)(F)F)cc1 (centres undefined) | 155 to 158 °C |
| Cc1cccc(O[C@@H]2CCNC[C@H]2O)c1C (relative stereo) | 127 to 129 °C |
| O=C(O)CS(=O)c1cc2onc(-c3ccccc3F)c2cc1Br (centres undefined) | 173 to 174 °C |
| COc1cc(NC2CCN(S(=O)(=O)c3ccccc3)CC2)ccc1C(N)=O | 166 to 168 °C |
| COc1ccc(-c2ccc3c(C(N)=O)nn(-c4ccc(S(N)(=O)=O)cc4)c3c2)cc1 | 258 to 259 °C |
| CS(=O)CC(=O)c1ccon1 (centres undefined) | 164 to 166 °C |
| CCOC(=O)C1C2OC3COC(C)(C)OC3C(OC)C21 (centres undefined) | 65 to 68 °C |

| SMILES | melting point |
| --- | --- |
| Cc1nc2cccc(C)c2c(=O)[nH]1 | 255 to 257 °C |
| C=Cc1ccc(-n2cc(C)c(=O)[nH]c2=O)cc1 | 185 °C |
| C=C(c1ccn[nH]1)c1ccc(OCC(=O)OCC)c(Cl)c1Cl | 110 to 112 °C |
| O=CN1CCN(c2nc3ccc(Cl)ccc-3n2)CC1 | 228 to 229 °C |
| CCOC(=O)C1=Cc2cccc(C(N)=O)c2OCC1 | 120 to 125 °C |
| CC(=C1SC(=S)NC1=O)c1ccccc1C(=O)O | 193 to 195 °C |
| CC(=O)Oc1c(C)ccc2c1N=CC1CCCN1C2=O (centres undefined) | 142 to 145 °C |
| CC(C)Oc1ccc2c(c1)OC(C(F)(F)F)C(C(=O)O)=C2 (centres undefined) | 161 to 163 °C |
| Cc1ccc2c(c1)C=Cc1cc(C)ccc1C2c1cn(-c2ccnc(NCC(=O)O)n2)c(=O)[nH]c1=S | 205 °C |
| CCOC(=O)c1csc(Cc2ccccc2)n1 | 78 to 79 °C |
| COc1ccc(C(=O)Nc2c(Cl)cncc2Cl)cc1O | 227 to 228 °C |
| COC(=O)c1ccc(-c2nc(NCc3ccc(OC)c(Cl)c3)c3c(n2)sc2ccccc23)cc1 | 203 to 204 °C |
| O=S1(=O)c2cccc3cccc(c23)N1CCN1CCC(CC2=Cc3ccccc3C2)CC1 | 176 °C |
| O=S(=O)(Nc1ccccc1OCc1ccc2ccccc2n1)c1ccc(Cl)cc1 | 129 to 130 °C |
| Cc1cccc2[nH]c(Cl)nc12 | 138 to 140 °C |
| CCOC(=O)C1=C(C)NC(CO)=C(C(=O)OCC)C1c1ccccc1OC (centres undefined) | 125 to 126 °C |
| CCS(=O)(=O)Nc1cc(-n2nc3n(c2=O)CCS3)c(F)cc1C#N | 209 to 211 °C |
| CC(C)C12COc3cc(Cl)ccc3C1=NN(C(Cl)=Nc1ccc(C(F)(F)F)cc1)C2 (centres undefined) | 148 to 149 °C |
| COc1ccc(NC(=O)Cn2c3c(c4c(Cl)c(Cl)ccc42)CCN(C(=O)OC(C)(C)C)CC3)cc1 | 143 to 144 °C |
| CCSc1c(O)ccc2[nH]ncc12 | 116 °C |
| Cc1cc(N)cc(C)c1Oc1ccc(O)c(Cc2ccc(F)cc2)c1 | 179 to 182 °C |
| CC1=C(C(=O)OC(C)C)C(c2cccc(Cl)c2)N(C(=O)Oc2ccc([N+](=O)[O-])cc2)CN1 (centres undefined) | 165 to 167 °C |
| NC(=O)COc1ccc(CCN2CCC(Nc3nc4ccccc4n3Cc3ccc(F)cc3)CC2)cc1 | 180 °C |
| Cc1ccc(Sc2nc(Cl)cc(OCCOc3ccccc3)n2)cc1 | 128 to 132 °C |
| Cc1cc(Oc2c(Cl)cc(C(F)(F)F)cc2Cl)nn1C(=O)NCc1ccccn1 | 121 to 123 °C |
| COc1ccc(C(Cl)Sc2ccc(Cl)cc2)cc1 (centres undefined) | 76 to 77 °C |
| CS(=O)(=O)c1ccc(C(=O)O)c(C(F)(F)F)c1F | 250 to 252 °C |

Now from value to compound:

| melting point | SMILES |
| --- | --- |
| 188 to 190 °C | CCc1nc2cc(C(C)=O)ccc2n1-c1ccc(CCOC(=O)NS(=O)(=O)c2ccc(C)cc2)cc1 |
| 295 to 298 °C | CCCc1c(CC)sc2[nH]c(=O)c(=O)[nH]c12 |
| 190 °C | CC(=O)N[C@H](C(=O)N1C[C@@H]2C(=O)CCC(c3ccccc3)(c3ccccc3)[C@@H]2C1)c1ccccc1 |
| 73 to 80 °C | O=CC(=O)c1ccc(Oc2cccc(C(F)(F)F)c2)cc1 |
| 180 °C | CCOc1ccc2c(c1)n(C1CCCCC1)c(=O)n2S(=O)(=O)c1ccc(C(=O)NC(C)(C)CC(C)(C)C)cc1OC |
| 150 to 152 °C | Cc1ccc(NC(=O)c2ccc(C(=O)Nc3ccccc3N)nc2)cc1Nc1nccc(-c2cccnc2)n1 |
| 142 to 143 °C | O=C(O)c1ccc(OCCCc2ccc(OCCCCOc3ccccc3)cc2)c(C(=O)N2CCC(C(=O)O)CC2)c1 |
| > 300 °C | COc1cccc(CNC(=O)c2nc3sc(C(=O)O)c(C)c3c(=O)[nH]2)c1 |
| 86 to 87 °C | CCOC(=O)c1cnn2c1c(SC)nc1c(C)nn(C)c12 |
| 144 to 145 °C | COc1ccc(CC(=O)NCCc2cc3c(cc2C)CCC3)cc1OC |
| 108 to 110 °C | COc1ccc(C2=NC(C)(C)CO2)cc1N |
| 68 to 70 °C | Cc1ccc(Nc2nnc(Cc3ccncc3)c(C)c2C)cc1 |
| 200 to 203 °C | CNC(=O)C=Cc1cn(C)nc1[N+](=O)[O-] |
| 240 to 243 °C | CN(CCN(C)[C@H]1CC[C@H](c2ccc3[nH]c(=O)oc3c2)CC1)c1ccccc1 |
| 264 to 267 °C | Cc1nc2cnccc2n1-c1ccc2c(c1)CC(C(=O)O)C2 (centres undefined) |
| 248 to 249 °C | COc1cc(N2CCOCC2)ccc1Nc1nc(Nc2ccc3c(c2OC)CCCC(=O)N3)ncc1Cl |
| 171 °C | CCOc1cc(O)c2cc(F)c(F)c(F)c2n1 |
| 118 °C | COc1cc(-c2nc3ccc(OCCCCl)cc3n2Cc2ccccc2)cc(OC)c1OC |
| 229 to 230 °C | CCCCn1c(N)c(N=O)c(=O)n(CC2CCCCC2)c1=O |
| 138 to 141 °C | C[C@H](NS(=O)(=O)C12CC3CC(CC(C3)C1)C2)C(=O)N1CCC[C@H]1C(=O)Nc1ccccc1 |
| 254 to 257 °C | C=Cn1cc(C(=O)O)c(=O)c2cc(F)c(-c3ccncc3)nc21 |
| 149 to 153 °C | CCN1C(=O)NCC1c1ccc(OC)c(OC2CC3CCC2C3)c1 (centres undefined) |

| melting point | SMILES |
| --- | --- |
| 186 to 187 °C | CSC(=O)C(=O)c1nsc(NC=O)n1 |
| 138 to 139 °C | CN(C)c1ccc([N+](=O)[O-])c(CO)c1 |
| 184 to 186 °C | O=C(O)c1cc(OCc2ccsc2)c(-c2ccccc2)c([N+](=O)[O-])c1 |
| 142 to 143 °C | CC(C)c1ccc2c(c1)c(Sc1ccccc1C(C)C)c(CC(C)(C)C(=O)O)n2Cc1ccc(Cl)cc1 |
| 218 to 220 °C | Cc1ccc(C(C)(C)C)c(O)c1-c1nc2cc(S(=O)(=O)C(F)(F)F)ccc2[nH]1 |
| 156 to 158 °C | O=C(Oc1ccccc1)N1CCC2(CC1)SC(c1ccccc1)c1ccc(F)cc12 (centres undefined) |
| 222 to 224 °C | COc1cccc2c1cc(C(=O)O)n2CC(=O)OC(C)(C)C |
| 204 to 206 °C | N#Cc1cnc2c(c1)N(Cc1cc(F)ccc1F)CCN2 |
| 141 to 142 °C | COc1ccc(C#Cc2cccc(C(C)N(O)C(N)=O)c2)cc1 (centres undefined) |
| 211 to 212 °C | CN1CCN(Cc2c(-c3cc(C(C)(C)C)c(O)c(C(C)(C)C)c3)nc3n2CCS3)CC1 |
| 235 °C | CS(=O)(=O)Nc1cc(N)c(F)cc1C#N |
| 152 to 154 °C | N#Cc1c(N2CCCCC2)cc(-c2ccc(F)cc2)c2c1C(=O)c1ccccc1-2 |
| 107 to 109 °C | S=C(Nc1ccccc1)Nc1ncccc1OCc1ccccc1 |
| 222 °C | O=C1Nc2ccc(F)c(F)c2[C@@](C#CC2CC2)(C(F)(F)F)O[C@H]1C1CC1 (relative stereo) |
| 67 to 69 °C | COc1cc(NC(=O)c2cccc(CCc3cc(Nc4ccccc4)n[nH]3)c2)cc(OC)c1OC |
| 193 °C | COc1cc(C(=O)NNC(=N)N)c(OC)cc1C |
| 195 to 197 °C | CCC(=O)N1Cc2cc(OC)ccc2C(Cc2c(Cl)cncc2Cl)=N1 |
| 70 to 75 °C | CCCCN(CCCC)C(=O)NCCc1ccc(-c2csc(NC(=O)OC(C)(C)C)n2)cc1 |
| 173 to 175 °C | O=C1COC2CCCc3nc4ccccc4c(c32)N1 (centres undefined) |
| 134 to 152 °C | Cc1cc(C2(C(F)(F)F)CC(c3ccc(S(C)=O)cc3)=NO2)ccc1NC(=O)c1cccc(I)c1C(=O)NC(C)C (centres undefined) |
| 103 to 105 °C | CC(C)(C)c1cc(C(=O)c2cccs2)cc2c1OCC2(C)C |
| 199 to 200 °C | CCn1c(C(c2ccccc2)c2ccccc2)nc(-c2ccncc2)c1-c1ccc(Cl)cc1 |

Source: a melting point compilation (Tetko et al.; mined from patent text by program, amines drawn as free bases though some values may be those of a salt)
